Where two headings read alike, the source gives them in different places.
Tests used:
[1] = test system: P. mirabilis; test: Antibacterial activity: Minimum Inhibitory Concentration; assay type: cell-based, Proteus mirabilis NCTC 8559; conditions: for MIC: Proteus mirabilis, read-out: Minimum Inhibitory Concentration
Experimental: (§1) The antimicrobial activity was determined by inoculation of the test microorganism into suitable growth media containing solutions of the compounds at concentrations of 100, 50, 10, 5, 1.0, 0.5 and 0.1 μg/ml. The reference antibiotics used were Gentamicin for the antibacterial tests and Amphotericin B for the antimycotic and antifungal tests. After incubation the antimicrobial activity was recorded as the Minimal Inhibitory Concentration (M.I.C.), i.e., the lowest concentration preventing macroscopically visible growth, for each test compound against each organism.
(§2) An initial solution of each formula (I) compound to be tested in sterile distilled water was prepared at a concentration of 1000 μg/ml. With appropriate dilutions using sterile distilled water, additional solutions were prepared at concentrations of 500, 100, 50, 10, 5 and 1 μg/ml.
(§3) They were cultured and maintained on Tryptone Soy Agar (Oxoid CM 131), with the addition of 10% horse blood for the S. pyogenes.
(§4) To prepare the organisms as inocula for the test, slopes of this medium were streaked with the organisms and incubated at 37° C. for 24 hours. 4.5 Ml volumes of Brian-Heart Infusion Broth (Oxoid CM 225) were then inoculated with a platinum loop from the agar slope cultures and incubated for 24 hours at 37° C. The final inocula were then prepared by adding 0.1 ml aliquots of the Brain-Heart Infusion Broth cultures to 100 ml volumes of sterile physiological saline.
(§5) (a) For the test on each of the bacterial strains and each of the test and reference compounds, a series of 8 tubes containing 4.5 ml volumes of Brain-Heart Infusion Broth (Oxoid CM 225) were prepared. To 7 of these were added 0.5 ml volumes of the final solutions of the test compouns, giving final concentrations in the broths of 100, 50, 10, 5, 1.0, 0.5 and 0.1 μg/ml. To the eighth tube in each series was added 0.5 ml of the solvent used and diluted as for the preparation of the 1000 μg/ml solution of the compound. This tube was used as the growth control. The tubes were inoculated with 0.02 ml aliquots of the inocula prepared in accordance with "(a) Bacteria" above, and incubated at 37° C. for 24 hours. The tubes were then examined for evidence of bacterial growth as shown by turbidity of the medium and the lowest concentration of the test compound which prevented bacterial growth was recorded as the Minimal Inhibitory Concentration. This test procedure was carried out on two separate days.

[2] = test system: A. fumigatus; test: Antifungal activity: Minimum Inhibitory Concentration; assay type: cell-based, Aspergillus fimigatus (A. fumigatus) NCPF 2140; conditions: A. fumigatus, 27° C., one week; for MIC: Aspergillus fumigatus, read-out: Minimum Inhibitory Concentration
Experimental: as §1, §2
The A. corymbifera, A. fumigatus, S. schenkii, T. rubrum, T. mentagrophytes, M. canis and P. verrucosa strains were all maintained on Sabouraud-Dextrose Agar (Oxoid CM 41) by incubating for 14 days at 27° C. To prepare the inocula 30 ml volumes of Sabouraud-Liquid medium (Oxoid CM 147) were inoculated from the agar cultures and incubated at 27° C. until heavy uniform growth resulted. The mycelial growth was then broken up by shaking with glass beads.
1 Ml aliquots were removed from each of the cultures for the purpose of making viable counts and the cultures were then held at 4° C. The viable counts were made by preparing serial ten-fold dilutions of the cultures in sterile physiological saline and spreading on plates of Sabouraud-Dextrose Agar (Oxoid CM 41) which were then incubated at 27° C. for 14 days. When the viable counts had confirmed that each of the inocula contained approximately 10^6 colony forming units (C.F.U.) per ml the cultures were withdrawn from the refrigerator and used as the inocula for the tests.
(c) For the tests on each of the remaining seven strains and each of the test and reference compounds, a series of 8 tubes containing 4.5 ml volumes of Sabouraud-Liquid Medium (Oxoid CM 147) were prepared. To 7 of these were added 0.5 ml volumes of the final solutions of the test compounds, giving final concentrations in the broths of 100, 50, 10, 5, 1.0, 0.5 and 0.1 μg/ml. To the eighth tube in each series was added 0.5 ml of the solvent used and diluted as for the preparation of the 500 μg/ml solution of the compound. This tube was used as a growth control. The tubes were then inoculated with 0.1 ml aliquots of the inocula prepared as in "(b) Fungi" above. The tubes were then incubated at 27° C. with continuous shaking for a period of one week. The tubes were then examined for evidence of growth as shown by the presence of mycelial growth in the medium and the lowest concentration of the test compound which prevented fungal growth was recorded as the Minimal Inhibitory Concentration. This test procedure was carried out on two separate days.

[3] = test system: S. pyogenes; test: Antibacterial activity: Minimum Inhibitory Concentration; assay type: cell-based, Streptococcus pyogenes NCTC 8198; conditions: 24 hours; for MIC: Streptococcus pyogenes
Experimental: as §1, §2, §3, §4, §5

[4] = test system: Algae (diatoms, green and blue algae); test: Algicidal activity in 350 liter concrete pools under outdoor conditions; conditions: for killing at 1 µg/mL: 1 mg/l water; for killing at 2 µg/mL: 2 mg/l water; for killing at 4 µg/mL: 4 mg/l water
Description: A comparison of the algicidic activity of the preferred compound, 1-hexadecyl-2,3,5-trimethyl-pyrazolium methosulfate, with said standard is shown in Table 4.
Results given above are mean values from 2 replicates of
Test conditions: Severe with high infection pressure after artificial
algae inoculation in 350 liter concrete pools under outdoor conditions.
Stains included: Green algae: Chlorella, Zygnema, Hormidium + Scenedesmus
Blue algae: Phormidium species
Diatoms: Nitzschea pallea
Water temperature: Day: 21° C., night: 18°-20° C.

[5] = P. mirabilis, Day 1, 37° C., 24 hours
[6] = P. mirabilis, Day 2, 37° C., 24 hours
[7] = mean over weeks 1-6, read-out: % algicidal activity, --x (mean)
[8] = 168 h, 1 week after treatment, mean of 2 replicates, read-out: % algicidal activity
[9] = 336 h, 2 weeks after treatment, mean of 2 replicates, read-out: % algicidal activity
[10] = 504 h, 3 weeks after treatment, mean of 2 replicates, read-out: % algicidal activity
[11] = 672 h, 4 weeks after treatment, mean of 2 replicates, read-out: % algicidal activity
[12] = 840 h, 5 weeks after treatment, mean of 2 replicates, read-out: % algicidal activity
[13] = 1008 h, 6 weeks after treatment, mean of 2 replicates, read-out: % algicidal activity

Compound | MIC ([3]; Day 1, 37° C.) [µg/mL] | MIC ([3]; Day 2, 37° C.) [µg/mL] | MIC [1, 5] [µg/mL] | MIC [1, 6] [µg/mL] | MIC ([2]; Day 1) [µg/mL] | MIC ([2]; Day 2) [µg/mL] | also measured
CCCCCCCCCCCCCCCC[n+]1c(C)cc(C)n1C.Cc1ccc(S(=O)(=O)[O-])cc1 [Example 6-C, 1-hexadecyl-2,3,5-trimethylpyrazolium p-toluene sulfonate] | – | – | – | – | – | – | MIC [1]: 50 µg/mL; Minimum Inhibitory Concentration ([2]; Day 2): 5 µg/mL
2,3(5)-dimethyl-1-hexadecyl-pyrazolium methosulfate [Example 9] | – | – | – | – | – | – | Minimum Inhibitory Concentration ([3]; Day 1, 37° C.): 0.5 µg/mL; Minimum Inhibitory Concentration ([3]; Day 2, 37° C.): 0.5 µg/mL; Minimum Inhibitory Concentration [1, 5]: 10 µg/mL; Minimum Inhibitory Concentration [1, 6]: 10 µg/mL; Minimum Inhibitory Concentration ([2]; Day 1): 5 µg/mL; Minimum Inhibitory Concentration ([2]; Day 2): 10 µg/mL
CCCCCCCCCCCC[n+]1c(C)cc(C)n1Cc1ccc(Cl)cc1Cl.[Br-] [Example 6-B, 2-(2,4-dichlorobenzyl)-3,5-dimethyl-1-dodecyl-pyrazolium bromide] | 0.5 | 0.5 | 50 | 50 | 5 | 5 | –
CCCCCCCCCCCC[n+]1c(C)cc(C)n1Cc1ccc(Cl)cc1.[Br-] [Example 6-E, 2-(p-chlorobenzyl)-3,5-dimethyl-1-dodecyl-pyrazolium bromide] | 0.5 | 0.5 | 50 | 50 | 10 | 5 | –
C=CCn1c(C)cc(C)[n+]1CCCCCCCCCCCCCCCC.[Br-] [Example 7, 2-allyl-3,5-dimethyl-1-hexadecyl-pyrazoliumbromide] | 0.5 | 0.5 | 10 | 50 | 10 | 50 | –
CCCCCCCCCCCCn1c(C)cc(C)[n+]1C [Example 1, 1-dodecyl-2,3,5-trimethyl-pyrazolium methosulfate] | 1 | 0.5 | 100 | 100 | 100 | > 100 | –
CCCCCCCCCCCCCCCCn1c(C)cc(C)[n+]1C [Example 2, 1-hexadecyl-2,3,5-trimethyl-pyrazolium methosulfate] | 0.5 | 0.5 | 10 | 10 | 10 | 5 | killing at 1 µg/mL [4, 7]: 96%; killing at 2 µg/mL [4, 7]: 99%; killing at 4 µg/mL [4, 7]: 100%; killing at 1 µg/mL [4, 8]: 100%; killing at 2 µg/mL [4, 8]: 100%; killing at 4 µg/mL [4, 8]: 100%; killing at 1 µg/mL [4, 9]: 100%; killing at 2 µg/mL [4, 9]: 100%; killing at 4 µg/mL [4, 9]: 100%; killing at 2 µg/mL [4, 10]: 100%; killing at 4 µg/mL [4, 10]: 100%; killing at 1 µg/mL [4, 11]: 96%; killing at 2 µg/mL [4, 11]: 100%; killing at 4 µg/mL [4, 11]: 100%; killing at 1 µg/mL [4, 12]: 93%; killing at 2 µg/mL [4, 12]: 100%; killing at 4 µg/mL [4, 12]: 100%; killing at 1 µg/mL [4, 13]: 88%; killing at 2 µg/mL [4, 13]: 98%; killing at 4 µg/mL [4, 13]: 100%
2,3(5)-dimethyl-1-dodecyl-pyrazolium methosulfate [Example 8-A] | – | – | – | – | – | – | Minimum Inhibitory Concentration ([3]; Day 1, 37° C.): 5 µg/mL; Minimum Inhibitory Concentration ([3]; Day 2, 37° C.): 5 µg/mL; Minimum Inhibitory Concentration [1, 5]: 100 µg/mL; Minimum Inhibitory Concentration [1, 6]: 100 µg/mL; Minimum Inhibitory Concentration ([2]; Day 1): 100 µg/mL; Minimum Inhibitory Concentration ([2]; Day 2): 100 µg/mL
CCCCCCCCCCCCCCCCn1ccc[n+]1C [Example 3-D, 1-hexadecyl-2-methyl-pyrazolium methosulfate] | 0.5 | 0.5 | 10 | 50 | 50 | 10 | –
CCCCCCCCCCCCCCn1ccc[n+]1C [Example 3-G, 2-methyl-1-tetradecyl-pyrazolium methosulfate] | 0.5 | 0.5 | 50 | 50 | 50 | 50 | –
CCCCCCCCCCCCCC[n+]1c(C)cc(C)n1Cc1ccc([N+](=O)[O-])cc1.[Br-] [Example 6-D, 3,5-dimethyl-2(4-nitrobenzyl)-1-tetradecyl-pyrazolium bromide] | 0.5 | 1 | 50 | 50 | 50 | 50 | –
CCCCCCCCCCCCn1ccc[n+]1C [Example 3-E, 1-dodecyl-2-methy-pyrazolium methosulfate] | 5 | 5 | 100 | 100 | 50 | 10 | –
